Values of other authors in patent US6455580B1, “Method and composition for antiviral therapy” (F&S Group, Inc., priority 1994, dated 2002).

What was measured:
[1] = not given; remark: listed apart in the source
[2] = animal studies; oleuropein itself or as component of plant tissue extracts

SMILES | antiviral properties in vitro | antiviral activity in vivo [1] | hypoglycemic and cardiovascular effects [2]
COC(=O)C1=CO[C@@H](C)[C@@H](C=O)C1CC(=O)O (single isomer, unassigned; (-)) [(−)-elenolic acid] | antiviral properties in vitro | little, if any, activity in vivo | 
C/C=C1/[C@H](O[C@@H]2O[C@H](CO)[C@@H](O)[C@H](O)[C@H]2O)OC=C(C(=O)OC)[C@H]1CC(=O)OCCc1ccc(O)c(O)c1 [oleuropein] |  |  | exhibit both hypoglycemic and cardiovascular effects
